Data: PMC4506530, “Small-Molecule Inhibitors That Target Protein–Protein Interactions in the RAD51 Family of Recombinases” (Chemmedchem, 2014)
Where two headings read alike, the source gives them in different places.

Tests used:
HumRADA2 [1] = target: T1, HumRADA2 (Pyrococcus furiosus, UniProt O74036, D220A/DEL288-314/E219S/I169M/K221M/V202Y/Y201A); experiment: Isothermal titration calorimetry (ITC), direct binding to HumRADA2; conditions: for -TDS / DG / DH: ITC thermodynamic binding profile, Table S1; for LLE: LLE=pKD−clog P, clog P calculated with Instant JChem (ChemAxon); for KD: ITC, substituted tryptamine sulfonamide series (Table 2), error from fitting a single-site binding model
Text: We previously published fragment-screening results using a humanised RAD51 surrogate from Pyrococcus furiosus, which we refer to as HumRADA2 (previously referred to as MAYSAM RadA).[23] In this surrogate protein, the N-terminal domain with the oligomerisation sequence was removed to monomerise the protein and expose the FxxA binding site for screening, and six surface residues were mutated around the Phe pocket in order to humanise the protein in this region.
(§1) Supplemental Experimental Procedures
(§2) C-terminal ATPase domain of P. furiosus RadA (residues 108–349, with deletion of the “L2” loop residues 288–314) was expressed in E.coli and purified as described before using ion-exchange ad size exclusion chromatographies.[1] Purified protein was concentrated to 0.5 mM, flash frozen in liquid nitrogen and stored at -80C. Protein concentration was determined by measuring absorbance at 280 nm in 6M GndHCl and using calculated absorption coefficient […]
(§3) Isothermal Titration Calorimetry
(§4) ITC experiments were performed at 25°C on a MicroCal ITC-200 (GE Healthcare).
(§5) HumRadA2 (humanized RadA) (600 µM in 20 mM MES pH 6.0 with 100 mM NaCl and 0.5 mM EDTA was diluted with Tris buffer (200 mM, pH 7.5 with 100 mM NaCl), and DMSO was added to match to the ligand solution. In titrations with ATP, 5 mM MgCl2 was included in the ligand buffer and the protein buffer. Compounds in DMSO were diluted into the same Tris buffer to give a final concentration of 0.6–10 mM ligand in 10% DMSO and Tris buffer. Care was taken to ensure that the DMSO concentrations in the protein and ligand solutions were well matched so as to avoid artefacts arising from heats of dilution of DMSO. In a typical experiment, protein (60 µM) was loaded in the sample cell, and 16 injections (2.4 µL) of 4.8 s duration were made at 80 s intervals from a syringe loaded with ligand (0.6–10 mM) and rotating at 1000 rpm. In all titrations, an initial injection of ligand (0.4 µL) was made and discarded during data analysis. Control titrations of ligand to buffer were performed and […]
(§6) The thermodynamic parameters were obtained by fitting the data to a single-site-binding model by using Origin software and fixing the stoichiometry as 1.0 for […]

HumRADA2 [2] = target: T1, HumRADA2; conditions: previously published fragment screening, humanised RadA, cited from earlier work
HumRADA2 [3] = target: T1, HumRADA2; experiment: Competitive ITC experiments to HumRADA2 (ligand titrated in the presence of compound); type: binding; conditions: protein pre-incubated with compound (200 μM 5 c)
Protocol: The KD measurement of each ligand was then repeated, but in the presence of 200 μM 5 c (bottom row titrations, Figure 2 B).
as §1, §2, §3, §4, §5, §6

[4] = tryptophan ester series (Table 1)
[5] = substituted tryptamine series (Table 2)
[6] = ITC against apo protein, in the absence of 5 c, read-out: KD

Molecule | Kd (HumRADA2 [1]) [µM] | LLE (HumRADA2 [1]; [4]) | LE (ligand efficiency) (HumRADA2 [1]; [4]) [kcal mol−1 per heavy atom] | LLE (HumRADA2 [1]; [5]) | LE (ligand efficiency) (HumRADA2 [1]; [5]) [kcal mol−1 per heavy atom] | further results
CNC(=O)C(N)Cc1c[nH]c2ccccc12 (stereo not shown) [compound 2] | 1500 ± 24 | 2.2 | 0.24 | – | – | -TDS (HumRADA2 [1]): 1.3 kcal/mol; DG (HumRADA2 [1]): -3.8 kcal/mol; DH (HumRADA2 [1]): -5.1 kcal/mol
Cc1ccccc1CCOC(=O)[C@@H](N)Cc1c[nH]c2ccccc12.Cl [5 h] | 30 ± 9 | 0.7 | 0.26 | – | – | –
Cl.N[C@@H](Cc1c[nH]c2ccccc12)C(=O)OCCCc1ccccc1 [5 d] | 160 ± 7 | 0.02 | 0.22 | – | – | –
Cn1cnc(S(=O)(=O)NCCc2c[nH]c3ccccc23)c1 [7 s] | 420 ± 74 | – | – | 1.8 | 0.22 | –
O=[N+]([O-])c1cccc(S(=O)(=O)NCCc2c[nH]c3ccccc23)c1 [7 e] | 18 ± 4 | – | – | 1.9 | 0.27 | –
Cl.N[C@@H](Cc1c[nH]c2ccccc12)C(=O)Oc1ccccc1 [5 a] | 190 ± 5 | 0.7 | 0.24 | – | – | –
COc1ccc(S(=O)(=O)NCCc2c[nH]c3ccccc23)cc1 [7 g] | 120 ± 10 | – | – | 1.2 | 0.23 | –
CC(=O)N[C@@H](Cc1c[nH]c2ccccc12)C(=O)OCCc1ccccc1F [6 b] | 18 ± 1 | 1.5 | 0.25 | – | – | –
c1ccc2[nH]ncc2c1 [indazole] | – | – | – | – | – | Kd (HumRADA2 [2]): 1000 µM
O=S(=O)(NCCc1c[nH]c2ccccc12)c1ccccc1 [7 a] | 28 ± 6 | – | – | 1.6 | 0.30 | –
COC(=O)C(Cc1c[nH]c2ccccc12)NC(C)=O (stereo not shown) [compound 3] | 810 ± 19 | 2.0 | 0.22 | – | – | -TDS (HumRADA2 [1]): 0.9 kcal/mol; DG (HumRADA2 [1]): -4.2 kcal/mol; DH (HumRADA2 [1]): -5.1 kcal/mol
Nc1cccc(S(=O)(=O)NCCc2c[nH]c3ccccc23)c1 [7 f] | 31 ± 6 | – | – | 2.4 | 0.28 | –
Nc1ncnc2c1ncn2[C@@H]1O[C@H](COP(=O)(O)OP(=O)(O)OP(=O)(O)O)[C@@H](O)[C@H]1O [ATP, reference compound] | – | – | – | – | – | Kd (HumRADA2 [1]; [6]): 2.5 µM
Cl.N[C@@H](Cc1c[nH]c2ccccc12)C(=O)OCCC1CCCCC1 [5 m] | 28 ± 9 | 0.8 | 0.27 | – | – | –
O=S(=O)(NCCc1c[nH]c2ccccc12)c1ccccc1Br [7 d] | 3.1 ± 0.1 | – | – | 1.8 | 0.34 | –
O=C(CCc1ccccc1)N[C@@H](Cc1c[nH]c2ccccc12)C(=O)OCCc1ccccc1 [6 e] | > 200 | – | – | – | – | –
O=S(=O)(NCCc1c[nH]c2ccccc12)c1ccc(Br)cc1 [7 c] | 92 ± 22 | – | – | 0.4 | 0.25 | –
O=S(=O)(NCCc1c[nH]c2ccccc12)c1cccs1 [7 j] | 16 ± 6 | – | – | 1.9 | 0.33 | –
O=S(=O)(NCCc1c[nH]c2ccccc12)c1ccc(Br)s1 [7 k] | 10 ± 1 | – | – | 1.2 | 0.32 | –
O=S(=O)(NCCc1c[nH]c2ccccc12)c1c(Cl)sc(Cl)c1Br [7 n] | 2.3 ± 0.4 | – | – | 0.6 | 0.33 | –
O=S(=O)(NCCc1c[nH]c2ccccc12)c1cc(Br)c(Cl)s1 [7 m] | 1.3 ± 0.1 | – | – | 1.5 | 0.36 | -TDS (HumRADA2 [1]): -2.7 kcal/mol; DG (HumRADA2 [1]): -8.1 kcal/mol; DH (HumRADA2 [1]): -5.4 kcal/mol; competition with binding of the RadA self-oligomerisation peptide (HumRADA2 [3]): blockage of the binding
Cl.N[C@@H](Cc1c[nH]c2ccccc12)C(=O)OCCc1ccccc1O [5 g] | 27 ± 12 | 1.5 | 0.26 | – | – | –

Molecule | Kd (HumRADA2 [1]) [µM] | LLE (HumRADA2 [1]; [4]) | LE (ligand efficiency) (HumRADA2 [1]; [4]) [kcal mol−1 per heavy atom] | LLE (HumRADA2 [1]; [5]) | LE (ligand efficiency) (HumRADA2 [1]; [5]) [kcal mol−1 per heavy atom] | further results
Cl.N[C@@H](Cc1c[nH]c2ccccc12)C(=O)OCCc1ccccc1F [5 f] | 25 ± 5 | 1.1 | 0.26 | – | – | –
COc1ccc(CCOC(=O)[C@@H](N)Cc2c[nH]c3ccccc23)cc1 [5 k] | > 200 | – | – | – | – | –
O=C(NC(Cc1c[nH]c2ccccc12)C(=O)OCCc1ccccc1)c1ccccc1 (stereo not shown) [6 a] | 3 ± 1 | 0.5 | 0.24 | – | – | -TDS (HumRADA2 [1]): -4.2 kcal/mol; DG (HumRADA2 [1]): -7.6 kcal/mol; DH (HumRADA2 [1]): -3.4 kcal/mol
O=S(=O)(NCCc1c[nH]c2ccccc12)c1cc2ccccc2s1 [7 p] | 1.6 ± 0.6 | – | – | 1.8 | 0.33 | –
COC(=O)c1cccc2[nH]ccc12 [4-methyl ester indole] | – | – | – | – | – | Kd (HumRADA2 [2]; read-out: KD): 1300 µM
O=C(NC(Cc1c[nH]c2ccccc12)C(=O)OCCc1ccccc1)C1CCCCC1 (stereo not shown) [6 d] | > 200 | – | – | – | – | –
Ac-FHTA-NH2 [reference compound] | – | – | – | – | – | Kd (HumRADA2 [1]; [6]): 250 µM; Kd (HumRADA2 [2]; read-out: KD): 250 µM
COC(=O)[C@@H](N)Cc1c[nH]c2ccccc12 [compound 1, L-tryptophan methyl ester] | – | 1.9 | 0.28 | – | – | -TDS (HumRADA2 [1]): 2.0 kcal/mol; DG (HumRADA2 [1]): -4.4 kcal/mol; DH (HumRADA2 [1]): -6.4 kcal/mol; Kd (HumRADA2 [2]): 570 µM
Cl.N[C@@H](Cc1c[nH]c2ccccc12)C(=O)OCc1ccccc1 [5 b] | 200 ± 8 | 0.7 | 0.23 | – | – | –
O=S(=O)(NCCc1c[nH]c2ccccc12)c1ccc(Cl)s1 [7 l] | 13 ± 1 | – | – | 1.3 | 0.32 | –
O=S(=O)(NCCc1c[nH]c2ccccc12)c1ccco1 [7 r] | 18 ± 2 | – | – | 2.6 | 0.32 | –
Cc1ccc(CCOC(=O)C(N)Cc2c[nH]c3ccccc23)cc1 (stereo not shown) [5 j] | 22 ± 4 | 0.8 | 0.26 | – | – | –
O=C(N[C@@H](Cc1c[nH]c2ccccc12)C(=O)OCCc1ccccc1)c1cccc([N+](=O)[O-])c1 [6 c] | > 200 | – | – | – | – | –
Cc1cccc(CCOC(=O)[C@@H](N)Cc2c[nH]c3ccccc23)c1.Cl [5 i] | 30 ± 7 | 0.7 | 0.26 | – | – | –
N[C@@H](Cc1c[nH]c2ccccc12)C(=O)OCCc1ccc(Br)cc1 [5 l] | > 200 | – | – | – | – | –
N[C@@H](Cc1c[nH]c2ccccc12)C(=O)NCCc1ccccc1 [5 e] | > 200 | – | – | – | – | –
O=S(=O)(Cc1ccccc1)NCCc1c[nH]c2ccccc12 [7 b] | > 200 | – | – | – | – | KD (HumRADA2 [1]): No activity was detectable
Cl.N[C@@H](Cc1c[nH]c2ccccc12)C(=O)OCCc1c[nH]c2ccccc12 [5 n] | 35 ± 9 | 1.0 | 0.23 | – | – | –
CNC(=O)C(Cc1c[nH]c2ccccc12)NC(C)=O (stereo not shown) [compound 4] | 890 ± 15 | 2.6 | 0.22 | – | – | -TDS (HumRADA2 [1]): 1.6 kcal/mol; DG (HumRADA2 [1]): -4.2 kcal/mol; DH (HumRADA2 [1]): -5.8 kcal/mol
O=S(=O)(NCCc1c[nH]c2ccccc12)c1cc(Br)c(Br)s1 [7 o] | 67 ± 29 | – | – | −0.4 | 0.27 | –
CS(=O)(=O)NCCc1c[nH]c2ccccc12 [7 i] | > 200 | – | – | – | – | KD (HumRADA2 [1]): No activity was detectable
Cc1noc(C)c1S(=O)(=O)NCCc1c[nH]c2ccccc12 [7 q] | 110 ± 12 | – | – | 2.4 | 0.25 | –
